{"source": "patent US20220267390A1", "about": "“MPS MODIFIED PEPTIDES AND USE THEREOF” (The Regents of the University of California, priority 2019, published 2022)", "key": {"LG704 oncospheres": {"system": "LG704 oncospheres", "assay": "RNA-seq of LG704 oncospheres", "type": "cell-based, human", "details": "50 μM", "experimental": "These genes were then analyzed with GSEA to determine which functional pathways were most affected by MARCKS. Right, Heat map of cancer-stemness markers associated with MARCKS activity.\nTargeting the MARCKS PSD is associated with inhibition of stem-like cell properties. In light of the importance of the PSD in the functionality of MARCKS protein, Applicant designed a 25-mer MPS peptide to mimic the MARCKS phosphorylation site domain (PSD). […] Applicant's initial studies have shown that elevation of phospho-MARCKS in lung cancer spheres acted in parallel with increased stemness markers, such as CD133, Oct3/4, SOX2 and Nanog (data not included). The oncospheres were derived from high MARCKS-expressing lung cancer cell lines (H1975 and CL1-5) and primary lung cancer cells (LG704 and LC3: pleural effusion cells isolated from patients with advanced stage) in non-adherent serum-free culture conditions as described previously^30-32. Flow cytometry confirmed that ˜80% of LG704 oncosphere cells are CD133-positive, a major lung CSCs marker. […] Through a comparison of transcriptome profiling between PBS- and MPS-treated LG704 oncospheres by RNA-seq, Applicant identified a total of 352 coding genes altered by MARCKS inhibition (FIG. 15, left). […] The sphere-forming ability was assessed by counting the number and size of tumor spheres (oncospheres) under a microscope. […]"}, "[1]": {"system": "bleomycin-induced pulmonary fibrosis", "assay": "Bleomycin-induced pulmonary fibrosis", "type": "in vivo, C57BL/6J mice", "details": "28 mg/kg i.p. every other day, Masson's trichrome staining after 22 days", "experimental": "FIGS. 20A and 20B show suppressive effects of MPS peptide on pulmonary fibrosis in vivo. C57BL/6 mice were intraperitoneally given either PBS, nintedanib (28 mg/kg), MPS peptide (28 mg/kg) or MPS-12042 (7 mg/kg) at the dosage of every two days after 9 days of intratracheal exposure with one shot of saline or bleomycin (33 μg in […] of saline, n=5). (FIG. 20A) Representative Masson trichrome and immunohistochemical staining of phospho-MARCKS (Ser159/163) and phospho-AKT (Ser473) (n=6). (FIG. 20B) Hydroxyproline level in the left lung of mice as described above was determined by a hydroxyproline ELISA assay (mean±SD, *p<0.05).\nMPS peptide potentially serves as an antifibrotic agent in bleomycin-induced pulmonary fibrosis. Bleomycin remains the standard agent for induction of experimental pulmonary fibrosis in animals^23. Thus, 8-week-old female C57BL/6J mice received saline or bleomycin intratracheally (33 μg in […] of saline) as previously described^23. Lung specimens from bleomycin- or saline-treated mice were collected and subjected to immunofluorescence staining. […] Next, lung fibroblast cells isolated from saline- or bleomycin-treated mice (two mice fibroblast cell lines were gifts from Dr. Sem H. Phan, University of Michigan School of Medicine, MI) were incubated with either 100 μM control or MPS peptide for 48 hours. […]"}}, "note": "Where no end group is shown, it is not given here."}
{"sequence": "KKKKKRFSFKKSFKLSGFSFKKNKK [MPS peptide]", "values": [{"measurement": "cancer stemness genes (ABCC8, CDH5, PROM1 (CD133), ALDH1L1, FGFR2)", "setting": "LG704 oncospheres", "value": "decreased"}, {"measurement": "fibroblastic lesions and deposited extracellular matrix in the lungs", "setting": "[1]", "value": "decreases of fibroblastic lesions and deposited extracellular matrix"}]}
